Data on three compounds can be found in PMC8470334, “N-Heterocyclic Carbene Iron Complexes as Anticancer Agents: In Vitro and In Vivo Biological Studies” (Molecules, 2021).

The IC50 is the concentration that inhibits the measured activity by half. Usually LC50 stands for the concentration lethal to half of the exposed cells or organisms. Read a high LC50 as lower toxicity.

Data set [1] relates to A2780 cell line. As to the kind of experiment: MTS cell viability assay (CellTiter 96), A2780. The following applies: for IC50: A2780, 48 h exposure, MTS, mean ± SEM; for SI (selectivity index): IC50 of fibroblasts / IC50 of A2780. It is filed as cell-based, human. Here is the method:
(§1) The in vitro cytotoxic potential of complexes Fe1 and Fe2 was evaluated through the CellTiter 96®Aqueous Non-Radioactive Cell Proliferation Assay using MTS, as described in Section 3.3.2 [26].
(§2) The antiproliferative activity of both complexes was evaluated through the exposure of the A2780 cell line to 0.01–50 µM of complexes Fe1 or Fe2 (Figure 3A) and of the HCT116 cell line to 0.1–50 µM of complexes Fe1 or Fe2 (Figure 3B) for 48 h.
(§3) Human colorectal carcinoma (HCT116) and normal dermal fibroblasts cell lines were grown in Dulbecco’s modified Eagle’s medium (DMEM) (Invitrogen Corp., Grand Island, NY, USA) supplemented with 10% (v/v) foetal bovine serum and 1% (v/v) antibiotic/antimycotic solution (Invitrogen Corp.). Human ovarian carcinoma (A2780) cell line was cultivated using the Roswell Park Memorial Institute (RPMI) medium supplemented as DMEM. The supplemented medium is named complete medium. Cells were grown in an incubator with a humidified atmosphere at 5% (v/v) CO2 and 37 °C. All cell lines were purchase from ATCC (ATCC®, American Type Culture Collection, Washington, DC, USA).
(§4) The evaluation of the cytotoxic potential of the complexes Fe1 and Fe2 was obtained through the measurement in vitro of the antiproliferative activity of these complexes. Cells were plated in 96-well plates at 7.5 × 10^4 cells/mL and incubated at 37 °C with 5% (v/v) CO2. After 24 h, the culture medium was replaced with a fresh medium containing 0.01–100 µM of complexes Fe1 or Fe2 and incubated for 48 h, as described previously. DMSO 0.1% (v/v) was used as the vehicle control for all cell lines. The fibroblasts cell line was used as a control of cytotoxicity of the complexes for healthy cells. Cisplatin was used as a positive control (a common chemotherapeutic agent). Cell viability was evaluated using CellTiter 96®Aqueous Non-Radioactive Cell Proliferation Assay (Promega, Madison, WI, USA) using 3-(4,5-dimethylthiazol-2-yl)-5-(3-carboxymethoxyphenyl)-2-(4-sulfophenyl)-2H-tetrazolium, inner salt (MTS), as described previously. In metabolically active cells, enzymes present in the mitochondria catalyse a reaction in which NADPH/ NADH is produced. These enzymes can reduce the MTS reagent into a brownish-coloured product called formazan, which can be quantified by measuring the absorbance at 490 nm. The quantity of product produced is directly proportional to the number of viable cells in culture. The amount of formazan product formed was measured with a Bio-Rad Microplate Reader Model 680 (Bio-Rad, Hercules, CA, USA). Half maximal inhibitory concentration (IC50) was calculated using GraphPad Prism 6 (GraphPad Software, La Jolla, CA, USA). Selectivity index (SI) was calculated for both tumour cell lines by dividing the IC50 of fibroblasts with the IC50 of HCT116 or A2780 for complexes Fe1 and Fe2.

For data set [2], the system named is HCT116 cell line. As to the kind of experiment: MTS cell viability assay (CellTiter 96), HCT116. The class given is cell-based, human. The following applies: for IC50: HCT116, 48 h exposure, MTS, mean ± SEM; for SI (selectivity index): IC50 of fibroblasts / IC50 of HCT116. Here is the method:
as §1, §2, §3, §4
(Tetrazolium dyes change colour on reduction, which living cells bring about.)

For data set [3], the system named is normal dermal fibroblasts. As to the kind of experiment: MTS cell viability assay (CellTiter 96), fibroblasts. The class given is cell-based, human. The following applies: 48 h exposure, mean ± SEM. The protocol:
The antiproliferative effect of complexes Fe1 and Fe2 was also tested on a nontumor cell line, fibroblasts, to evaluate their antiproliferative activity in healthy cells. For that, a range of concentrations from 0.01 to 100 µM of both complexes was used (Figure 4). As previously observed for the tumour cell lines, a concentration-dependent reduction of cell viability is observed (Figure 3 and Figure 4).
Human colorectal carcinoma (HCT116) and normal dermal fibroblasts cell lines were grown in Dulbecco’s modified Eagle’s medium (DMEM) (Invitrogen Corp., Grand Island, NY, USA) supplemented with 10% (v/v) foetal bovine serum and 1% (v/v) antibiotic/antimycotic solution (Invitrogen Corp.). […]
The evaluation of the cytotoxic potential of the complexes Fe1 and Fe2 was obtained through the measurement in vitro of the antiproliferative activity of these complexes. […] Cell viability was evaluated using CellTiter 96®Aqueous Non-Radioactive Cell Proliferation Assay (Promega, Madison, WI, USA) using 3-(4,5-dimethylthiazol-2-yl)-5-(3-carboxymethoxyphenyl)-2-(4-sulfophenyl)-2H-tetrazolium, inner salt (MTS), as described previously. […] These enzymes can reduce the MTS reagent into a brownish-coloured product called formazan, which can be quantified by measuring the absorbance at 490 nm. The quantity of product produced is directly proportional to the number of viable cells in culture. […]

The test system of data set [4] is zebrafish embryos. The data set can be described thus: Fish embryo acute toxicity test (FET). The following applies: for LC50: early blastula stage up to 72 hpf, Logit and Probit analyses; for LOEC (lowest observed effect concentration) / NOEC (no observed effect concentration): up to 72 hpf. The class given is in vivo, zebrafish (Danio rerio). The protocol: In addition, the mortality distribution obtained for each compound allowed the accurate estimation of the LC50 (Figure 7). […] For this reason, Fe1 and Fe2 compounds were analysed in vivo using colorectal HCT116 zebrafish xenograft.
The wild-type zebrafish were housed in a water recirculation system under controlled physicochemical conditions of temperature (26 ± 2 °C), pH (7–7.5), and conductivity (400–600 µS/cm). The fertilised eggs were collected after natural spawning and housed in Petri dishes until their use. Next, eggs were exposed to Fe1 and Fe2 and dissolved in water containing 1% DMSO. Then, toxicological analyses were carried out based on the approved standard OECD TG 236—fish embryo toxicity test (FET), with modifications. For the study, four replicates of 12 embryos were distributed for each of the 5 concentrations tested for compounds; for Fe1, the concentrations used were 15, 20, 25, 30, 35 µM), and for Fe2 were 1, 5, 10, 15, 20 µM. The performed zebrafish toxicity experiments were approved by the animal care and use committee of the University of Santiago de Compostela and the standard protocols of Spain (CEEA-LU-003 and […]). The toxicity results data were analysed by probit analysis using ToxRat Software (ToxRat Solutions. 2003. ToxRat. Software for statistical analysis of bioassays. Alsdorf, Germany).

The test system of data set [5] is human HCT116 colorectal cancer cells. As to the kind of experiment: Zebrafish embryo xenograft assay. It is filed as in vivo. The following applies: compared with control. The protocol: HCT116 human colorectal cancer cell line was incubated in standard conditions in a humidified incubator at 37 °C and 5% CO2 until a confluence of 70–80% was reached. Afterwards, the cells were concentrated and labelled with DiI and injected in the circulation (Duct of Cuvier) of 48 hpf zebrafish embryos in order to assay the proliferation in vivo of the cells exposed to Fe1 and Fe2. Fe1 and Fe2 (5 μM and 0.25 μM, respectively) were dissolved in the water at 1-day post injection (dpi) to allow the recovery of the embryos from the injection in the first 24 h and maintained until the end of the experiment at 3 dpi. Imaging of the embryos was performed at 1 dpi and 3 dpi to quantify the fluorescence and area of the cells in the caudal hematopoietic tissue (CHT) in the tail of the embryos, where cells invade and grow, and measure their proliferation over time to assess the inhibitory effect of the compounds assayed over the cells.
The results were calculated based on a comparison between 3 dpi and 1 dpi time points and normalised at 3 dpi against control conditions due to the nature of the lipophilic dye in the proliferation of the cells. […]
At 1 dpi, the embryos were imaged, and the compound (Fe1 and Fe2) was added to the water. […] Imaging of the embryos was performed using a fluorescence stereomicroscope (AZ-100, Nikon, Tokyo, Japan). […]

Data set [6] in a line: Solubility in buffer aqueous media. The class given is physicochemical. The following applies: fully soluble on adding DMSO (final not above 0.1% v/v).
Data set [7] in a line: Stability in PBS by UV-visible spectrum. It is filed as physicochemical. The following applies: PBS pH 7.0, room temperature, aerobic, over 48 h. Here is the method: The stability of complexes Fe1 and Fe2 was evaluated over 48 h at room temperature by monitoring their UV–visible spectrum in PBS (pH 7.0) (Figure 2). […] Based on our previous works with Ru carbonyl metal complexes, we speculate that release of CO ligand, 2 in the case of Fe1 and 1 in the case of Fe2, may occur in the first 30 min, as the decrease profile is more pronounced for Fe1 with two CO ligands (Figure 2B,D). We could also speculate that, in the case of Fe1, both CO ligands might be replaced by water molecules, maintaining the previous charge on this novel Fe species (cationic), while in Fe2, the release of the CO ligand and replacement by water molecule would maintain this new Fe species neutral.
Complexes Fe1 and Fe2 solutions were prepared in 10 mM phosphate-buffered solution (PBS) containing 0.15 M NaCl (pH 7). All spectra were recorded for 48 h on a recorded with a Varian-Cary 100 Bio spectrophotometer (Agilent, Santa Clara, CA, USA), using a quartz cuvette with 1 cm path length in a wavelength range from 220 to 500 nm.

In the case of [Cp(IMes)Fe(CO)2]I [Fe1], in data set [1], 1.34 ± 0.25 µM corresponded to half-maximal inhibition (IC50) and the “SI (selectivity index)” value amounted to 17.7. Also, in data set [2], half-maximal inhibition (IC50) required 0.87 ± 0.09 µM and the “SI (selectivity index)” value was 27.1. In addition, in data set [3], the IC50 was 23.61 ± 0.14 µM. In addition, in data set [4], the LC50 is 24.6 µM, the “LOEC (lowest observed effect concentration)” value is reported as 20 µM and the “NOEC (no observed effect concentration)” value worked out at 15 µM. Also, in data set [5] (5 μM dissolved in the water from 1 dpi to 3 dpi), the “proliferation of HCT116 cells in vivo” value was “reduce the proliferation of human HCT116 colorectal cancer cells in vivo”. The solubility entry in data set [6] is “insoluble in buffer aqueous media”. For the same compound, the “stability (360 nm band)” value in data set [7] is on record as “rapidly transformed into a new Fe species that is then stable, at least, until 24 h”.

Regarding `N.N.[Cl][Pt][Cl]` [Cisplatin, reference compound], the results for the IC50 in data set [1] and in data set [2] were 1.9 ± 0.2 µM and 15.6 ± 5.3 µM, respectively.

Consider Cp(IMes)Fe(CO)I [Fe2], for which, in data set [1], the IC50 came out at 2.91 ± 0.51 µM and the “SI (selectivity index)” value amounted to 14.4. Moreover, in data set [2], 3.26 ± 0.1 µM corresponded to half-maximal inhibition (IC50) and the “SI (selectivity index)” value turned out to be 12.9. Besides, the IC50 in data set [3] was 42 ± 0.75 µM. Further, in data set [4], the LC50 was determined as 6.86 µM, the “LOEC (lowest observed effect concentration)” value was found to be 5 µM and the “NOEC (no observed effect concentration)” value is on record as 1 µM. Moreover, the “proliferation of HCT116 cells in vivo” value in data set [5] (0.25 μM dissolved in the water from 1 dpi to 3 dpi) is “reduce the proliferation of human HCT116 colorectal cancer cells in vivo”. The solubility entry in data set [6] is given as “insoluble in buffer aqueous media”. In addition, the “stability (360 nm band)” value in data set [7] is recorded as “a lower decrease of the 360 nm peak intensity occurs within the first 30 min”.
